Reference: US20250213558A1, “T-TYPE CALCIUM CHANNEL MODULATORS COMPRISING A PIPERAZINE OR 1,4-DIAZEPANE CORE AND METHODS OF USE THEREOF” (Praxis Precision Medicines, Inc., priority 2022, published 2025)

Biological target: T1, Human Cav3.1 calcium channel (Homo sapiens, UniProt O43497)
T1 construct: expressed in transfected cells; host or cells: HEK-293 natClytin/TASK1+Cav3.1 cell line
Assay: Human Cav3.1 calcium channel patch clamp assay (SyncroPatch 384PE; single point and IC50, voltage dependent block)
Format: cell-based
Details: HEK-293 natClytin/TASK1+Cav3.1 cell line; for % Inhibition (Single Point Data): patch clamp; for IC50: voltage dependent block (VDB), read-out: Cav3.1 IC50
Experimental: Certain compounds (as indicated) were tested for Human Cav3.1 calcium channel activity via a patch clamp assay as disclosed herein.
Pulse generation and data collection were performed with PatchController384 V1.3.0 and DataController384 V1.2.1 (Nanion Technologies). Offline analysis was performed using Excel and Graphpad Prism (V 8.4.2) with complete data files uploaded to Dotmatics. The access resistance and apparent membrane capacitance were estimated using built-in protocols. Current was recorded in whole cell configuration from a population of cells. The cells were lifted, triturated, and resuspended at 800,000 cells/ml. The cells were allowed to recover in the cell hotel prior to experimentation. Currents were recorded at room temperature. The external solution contained the following (in mM): NaCl 80, NMDG 60, KCl 4, MgCl2 1, CaCl2 6, glucose 5 and HEPES 10 (pH=7.4, Osmolarity˜300 mOsm). The extracellular solution was used as the wash, reference and compound delivery solution.
The compound plate was created at 2× concentrated in the extracellular solution. The compound was diluted to 1:2 when added to the recording well. The amount of DMSO in the extracellular solution was held constant at the level used for the highest tested concentration. For the voltage clamp experiments on Cav3.1, data were sampled at 10 KHz. After establishment of the seal and the passage in the whole cell configuration, the cells were held at −120 mV. Cav3.1 current was evoked using a 100 ms step to −20 mV (to measure resting state block), followed by a 1600 ms step to −65 mV and a second 100 ms step to −20 mV (to measure voltage dependent block). The voltage protocol was applied every 15 seconds in the absence and in the presence of the compounds under investigation. […] Current amplitude (pA) was measured in the peak 1 and 2. The average of last 3 sweeps of each liquid period (vehicle, compound under investigation, full block) was calculated. Nickel-sensitive current was used to calculate the % of inhibition in the presence of the compound under investigation.

T1 sequence (O43497 whole entry): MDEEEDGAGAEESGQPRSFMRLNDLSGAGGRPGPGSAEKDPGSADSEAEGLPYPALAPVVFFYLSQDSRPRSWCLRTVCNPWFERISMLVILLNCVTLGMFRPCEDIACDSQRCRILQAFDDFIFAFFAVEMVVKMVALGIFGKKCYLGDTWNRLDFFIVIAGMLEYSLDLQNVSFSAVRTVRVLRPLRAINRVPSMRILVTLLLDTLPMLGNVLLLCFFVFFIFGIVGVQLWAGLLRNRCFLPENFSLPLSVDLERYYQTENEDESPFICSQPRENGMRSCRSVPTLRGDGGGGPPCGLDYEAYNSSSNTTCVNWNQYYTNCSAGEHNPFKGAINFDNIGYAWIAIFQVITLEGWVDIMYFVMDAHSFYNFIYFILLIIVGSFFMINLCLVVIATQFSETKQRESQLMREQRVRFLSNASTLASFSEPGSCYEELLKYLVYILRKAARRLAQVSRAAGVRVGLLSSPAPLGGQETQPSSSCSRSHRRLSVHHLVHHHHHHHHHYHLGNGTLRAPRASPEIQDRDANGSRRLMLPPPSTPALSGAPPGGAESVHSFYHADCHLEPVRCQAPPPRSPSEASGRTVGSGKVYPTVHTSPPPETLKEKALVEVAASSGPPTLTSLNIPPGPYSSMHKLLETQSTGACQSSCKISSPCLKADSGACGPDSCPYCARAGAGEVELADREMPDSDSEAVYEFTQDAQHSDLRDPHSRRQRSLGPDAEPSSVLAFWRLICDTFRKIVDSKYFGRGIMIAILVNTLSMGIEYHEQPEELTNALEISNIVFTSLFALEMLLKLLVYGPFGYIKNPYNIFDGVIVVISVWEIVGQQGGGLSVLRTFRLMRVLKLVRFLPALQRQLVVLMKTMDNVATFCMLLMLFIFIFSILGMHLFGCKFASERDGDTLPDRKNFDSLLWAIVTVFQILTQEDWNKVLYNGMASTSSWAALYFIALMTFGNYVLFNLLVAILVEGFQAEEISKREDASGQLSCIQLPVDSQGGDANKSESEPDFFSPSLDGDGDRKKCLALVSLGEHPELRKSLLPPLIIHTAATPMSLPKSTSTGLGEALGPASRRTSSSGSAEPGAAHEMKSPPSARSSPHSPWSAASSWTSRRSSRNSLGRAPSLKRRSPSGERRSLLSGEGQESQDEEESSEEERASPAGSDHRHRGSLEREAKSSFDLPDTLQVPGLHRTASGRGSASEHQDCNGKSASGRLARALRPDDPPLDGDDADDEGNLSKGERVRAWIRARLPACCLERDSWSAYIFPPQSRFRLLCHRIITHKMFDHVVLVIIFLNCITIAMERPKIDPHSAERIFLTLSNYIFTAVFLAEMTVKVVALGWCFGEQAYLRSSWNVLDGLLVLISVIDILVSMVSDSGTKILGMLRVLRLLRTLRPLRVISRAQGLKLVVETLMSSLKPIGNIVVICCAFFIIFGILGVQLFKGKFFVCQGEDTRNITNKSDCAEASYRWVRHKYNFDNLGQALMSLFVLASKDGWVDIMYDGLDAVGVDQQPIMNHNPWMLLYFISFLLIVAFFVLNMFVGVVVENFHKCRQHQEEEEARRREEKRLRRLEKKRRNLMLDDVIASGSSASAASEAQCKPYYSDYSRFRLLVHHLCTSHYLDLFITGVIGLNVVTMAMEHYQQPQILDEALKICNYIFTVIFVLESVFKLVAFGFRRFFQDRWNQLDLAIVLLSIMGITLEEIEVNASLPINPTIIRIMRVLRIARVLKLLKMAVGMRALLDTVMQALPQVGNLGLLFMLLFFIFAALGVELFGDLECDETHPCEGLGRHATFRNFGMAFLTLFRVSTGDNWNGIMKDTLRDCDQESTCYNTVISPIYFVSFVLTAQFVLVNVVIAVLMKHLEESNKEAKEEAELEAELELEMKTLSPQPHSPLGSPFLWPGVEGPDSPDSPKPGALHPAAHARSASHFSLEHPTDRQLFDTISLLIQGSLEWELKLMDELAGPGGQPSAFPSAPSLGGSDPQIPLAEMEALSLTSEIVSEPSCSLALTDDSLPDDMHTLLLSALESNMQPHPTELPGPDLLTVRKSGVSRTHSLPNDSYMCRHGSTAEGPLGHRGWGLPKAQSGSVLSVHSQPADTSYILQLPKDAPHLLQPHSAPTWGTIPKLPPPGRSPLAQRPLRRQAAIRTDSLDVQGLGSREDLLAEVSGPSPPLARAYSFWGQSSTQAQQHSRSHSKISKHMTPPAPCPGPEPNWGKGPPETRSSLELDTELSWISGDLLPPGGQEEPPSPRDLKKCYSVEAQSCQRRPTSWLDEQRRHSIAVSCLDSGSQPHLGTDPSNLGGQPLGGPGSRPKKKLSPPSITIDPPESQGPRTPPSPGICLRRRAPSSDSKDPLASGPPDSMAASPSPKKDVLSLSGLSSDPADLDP

% Inhibition (Single Point Data) (Testing Conc 1) [%]	SMILES	% Inhibition (Single Point Data) (Testing Conc 1.25) [%]	IC50 [µM]
–	Fc1cc(Cl)c2nc(CN3CC4CC(C3)N4CC3CCC(F)(F)CC3)[nH]c2c1 [Compound 98]	92.211	0.231
–	CC(C)(NC(=O)CN1C[C@@H]2C[C@H]1CN2CC(=O)Nc1ccc(F)c(Cl)c1)C(F)(F)F [Compound 24]	92.08	0.185
–	CC(C)(C)NC(=O)CN1C2CCC1CN(Cc1nc3c(Cl)cc(F)cc3[nH]1)CC2 (centres unmarked) [Compound 65]	82.104	0.708
–	CC1(CN2C3CC2CN(Cc2nc4c(Cl)cc(F)cc4[nH]2)C3)CCOCC1 [Compound 106]	52.218	1.11
–	COc1cc(F)cc(NC(=O)CN2CC3CC(C2)N3CC(=O)NC(C)(C)C)c1 [Compound 211]	81.284	0.233
–	CC(C)(C)NC(=O)CN1C[C@H]2C[C@@H]1CN2CC(=O)NC12CC3CC(CC(C3)C1)C2 [Compound 261]	70.332	0.518
–	CC(C)(C)NC(=O)CN1C2CC1CN(C(=O)c1nc3c(Cl)cc(F)cc3[nH]1)C2 [Compound 210]	–	1.91
–	COc1cccc(NC(=O)CN2CC3CC2CN3CCNC(=O)C2(C(F)(F)F)CC2)c1 (centres unmarked) [Compound 237]	35.987	–
–	CC(C)(C)NC(=O)CN1C[C@@H]2C[C@H]1CN2CC(=O)NC12CCC(CC1)C2 [Compound 288]	23.299	1.71
–	Cc1ccc(Cl)cc1NC(=O)CN1CC2CC(C1)N2CC(=O)NC(C)(C)C [Compound 221]	48.175	0.882
–	CC(C)(C)NC(=O)CN1C[C@@H]2CC[C@H]1CN2CC(=O)Nc1ccc(F)c(Cl)c1 [Compound 271]	70.509	0.581
–	O=C(CN1CC2CC(C1)N2CC(F)C1CCCCC1)Nc1cc(F)cc(Cl)c1 (centres unmarked) [Compound 49]	44.843	1.16
–	COc1cc(NC(=O)CN2CC3CC(C2)N3CC(=O)NC2(C(F)(F)F)CC2)ccc1F [Compound 257]	89.324	0.232
–	Fc1ccc(Cl)c2nc(CN3CCN(CC(F)(F)C4CCCC4)CC3)[nH]c12 [Compound 163]	54.884	0.671
–	CC(C)(C)NC(=O)CN1C[C@H]2CC[C@@H]1CN2CC(=O)Nc1cc(F)cc(Cl)c1 [Compound 268]	85.508	0.356
–	CN(C(=O)CN1C2CC1CN(Cc1nc3c(Cl)cc(F)cc3[nH]1)C2)C(C)(C)C [Compound 101]	96.57	–
–	COc1cccc(NC(=O)CN2CC3CC(C2)N3CC(=O)NC(C)(C)C)c1 [Compound 208]	51.139	1.01
–	CC(C)(C)NC(=O)CN1CC2CC1CN2CC(=O)Nc1cccc(C(F)F)c1 (centres unmarked) [Compound 13]	64.618	0.49
–	CC(C)(C)NC(=O)CN1C2CC1CN(Cc1nc3c(C(F)(F)F)cccc3[nH]1)C2 [Compound 122]	80.218	0.224
–	CC(C)(C)CCN1CCN(Cc2nc3c(Cl)cc(F)cc3[nH]2)CC1 [Compound 73]	84.745	0.188
–	CC(C)(C)NC(=O)CN1C2CC1CN(CC(=O)Nc1ccn(Cc3ccc(C#N)cn3)n1)C2 [Compound 313]	−11.969	–
54.403	CC(C)(C)NC(=O)CN1CCN(CC(=O)NC23CC4CC(CC(C4)C2)C3)C(=O)C1 [Compound 33]	–	–
–	CC(C)(C)NC(=O)CN1C[C@@H]2C[C@H]1CN2CC(=O)NC12CC3CC(C1)CC(OC(F)F)(C3)C2 [Compound 346]	86.624	0.399

% Inhibition (Single Point Data) (Testing Conc 1) [%]	SMILES	% Inhibition (Single Point Data) (Testing Conc 1.25) [%]	IC50 [µM]
–	COc1cc(NC(=O)CN2CC3CC(C2)N3CC(=O)NC2(C(F)(F)F)CC2)ccc1Cl [Compound 332]	101.57	–
–	O=C(CN1CC2CC(C1)N2CCNC(=O)C1(C(F)(F)F)CC1)Nc1cc(F)cc(Cl)c1 [Compound 232]	98.914	0.138
–	COc1ccc(F)cc1NC(=O)CN1CC2CC(C1)N2CC(=O)NC(C)(C)C [Compound 218]	36.544	2.89
–	O=C(CN1CC2CC(C1)N2CCNC(=O)C1(C(F)(F)F)CCC1)Nc1cc(F)cc(Cl)c1 [Compound 229]	89.382	–
–	Fc1cc(Cl)c2nc(CN3CCN(Cc4ccc5c(c4)OCCO5)CC3)[nH]c2c1 [Compound 68]	87.04	0.215
–	Fc1cc(Cl)c2nc(CN3CCN(CC(F)(F)C4CCCC4)CC3)[nH]c2c1 [Compound 160]	73.495	0.652
–	COc1cc(Cl)cc(NC(=O)CN2C[C@@H]3C[C@H]2CN3CC(=O)NC2(C(F)(F)F)CC2)c1 [Compound 339]	87.995	0.249
–	CC(C(=O)Nc1cc(F)cc(Cl)c1)N1C[C@@H]2C[C@H]1CN2CC(=O)NC1(C(F)(F)F)CC1 (some centres unmarked) [Compound 262]	87.794	0.215
–	O=C(CN1CC2CC(C1)N2CCS(=O)(=O)c1ccccc1)Nc1cc(F)cc(Cl)c1 [Compound 171]	34.047	1.42
–	O=C(CN1CC2CC(C1)N2CC(=O)NC1(C(F)(F)F)CC1)Nc1ccc(F)c(C(F)F)c1 [Compound 252]	72.234	0.579
–	CC(C)(NC(=O)CN1CC2CC1CN2Cc1nc2c(Cl)cc(F)cc2[nH]1)C(F)(F)F (centres unmarked) [Compound 125]	95.552	0.156
–	Cc1ccc(Cl)c2nc(CN3CC4CC(C3)N4CC(=O)NC(C)(C)C)[nH]c12 [Compound 217]	100.76	–
–	CC(C)(C)CC(=O)N1C2CC1CN(Cc1nc3c(Cl)cc(F)cc3[nH]1)C2 [Compound 116]	–	2.46
–	Cc1ccc(C#N)c2nc(CN3CC4CC(C3)N4CC(=O)NC(C)(C)C)[nH]c12 [Compound 177]	87.595	–
–	CC(C)(C)NC(=O)CN1C[C@@H]2C[C@H]1CN2CC(=O)NC12CCC(CC1)CC2 [Compound 287]	72.068	0.682
–	CC(C)(C)NC(=O)CN1C2CC1CN(CC(=O)Nc1cc(F)c(F)c(OC(F)F)c1)C2 [Compound 360]	–	0.076
–	CN(C(=O)CN1C2CCC1CN(Cc1nc3c(Cl)cc(F)cc3[nH]1)C2)C(C)(C)C(=O)O [Compound 87]	7.971	–
–	COc1cccc(NC(=O)CN2CC3CC2CN3CCNC(=O)C2(C(F)(F)F)CCC2)c1 (centres unmarked) [Compound 236]	65.449	0.536
–	CC1(C)CCN1C(=O)CN1C[C@@H]2C[C@H]1CN2CC(=O)NC12CC3CC(CC(C3)C1)C2 [Compound 328]	48.833	–
–	CC(C)(C)NC(=O)CN1C[C@H]2C[C@@H]1CN2CC(=O)Nc1cc(F)cc(OC(F)F)c1 [Compound 21]	73.828	–
–	[2H]C([2H])([2H])C(NC(=O)CN1CC2CC1CN2CC(=O)Nc1cc(F)cc(Cl)c1)(C([2H])([2H])[2H])C([2H])([2H])[2H] (centres unmarked) [Compound 57]	95.078	–
29.301	CC(C)(C)NC(=O)CN1CCN(Cc2cnc(-c3ccccc3)[nH]2)CC1 [Compound 43]	–	–
